From ChEMBL document CHEMBL5113392, “Novel hybrid pyrrolidinedione-thiazolidinones as potential anticancer agents: Synthesis and biological evaluation” (Eur J Med Chem, 2022)
Active and inactive are the calls of the source. No cut-off for these calls is given here.

Key:
NCI-H522 = experiment: Anticancer activity against human NCI-H522 cells assessed as lethality incubated for 48 hrs by SRB assay; type: functional; conditions: read-out: LC50 (the source's name)
[1] = Cytotoxicity against mitogen activated human peripheral blood lymphocytes assessed as cell growth inhibition incubated for 48 hrs by MTT assay; type: toxicity, cell-based, Lymphocyte
HCC 2998 = experiment: Anticancer activity against human HCC 2998 cells assessed as total growth inhibition incubated for 48 hrs by SRB assay; type: functional
Hs-578T [2] = experiment: Anticancer activity against human Hs-578T cells assessed as growth inhibition incubated for 48 hrs by SRB assay; type: functional
IGROV-1 [3] = experiment: Anticancer activity against human IGROV-1 cells assessed as total growth inhibition incubated for 48 hrs by SRB assay; type: functional
HL-60 [4] = experiment: Anticancer activity against human HL-60 cells assessed as growth inhibition incubated for 48 hrs by SRB assay; type: functional
NCI-H322M = experiment: Anticancer activity against human NCI-H322M cells assessed as total growth inhibition incubated for 48 hrs by SRB assay; type: functional
SNB-19 = experiment: Anticancer activity against human SNB-19 cells assessed as total growth inhibition incubated for 48 hrs by SRB assay; type: functional
HL-60 [5] = experiment: Anticancer activity against human HL-60 cells assessed as lethality incubated for 48 hrs by SRB assay; type: functional; conditions: read-out: LC50 (the source's name)
NCI-H460 [6] = experiment: Anticancer activity against human NCI-H460 cells assessed as lethality incubated for 48 hrs by SRB assay; type: functional; conditions: read-out: LC50 (the source's name)
SF-295 = experiment: Anticancer activity against human SF-295 cells assessed as lethality incubated for 48 hrs by SRB assay; type: functional; conditions: read-out: LC50 (the source's name)
HCT-15 = experiment: Anticancer activity against human HCT-15 cells assessed as growth inhibition incubated for 48 hrs by SRB assay; type: functional
NCI-H23 = experiment: Anticancer activity against human NCI-H23 cells assessed as lethality incubated for 48 hrs by SRB assay; type: functional; conditions: read-out: LC50 (the source's name)
SK-OV-3 [7] = experiment: Anticancer activity against human SK-OV-3 cells assessed as growth inhibition incubated for 48 hrs by SRB assay; type: functional
SK-OV-3 [8] = experiment: Anticancer activity against human SK-OV-3 cells assessed as total growth inhibition incubated for 48 hrs by SRB assay; type: functional
RXF 393 = experiment: Anticancer activity against human RXF 393 cells assessed as growth inhibition incubated for 48 hrs by SRB assay; type: functional
[9] = Selectivity index, ratio of GI50 for human HaCaT cells to GI50 for human HCT-116 cells; type: toxicity; conditions: HaCaT cells versus HCT-116 cells, read-out: RatioGI50
[10] = Selectivity index, ratio of GI50 for human HaCaT cells to GI50 for human HCT116-p53-null cells; type: toxicity; conditions: HaCaT cells versus HCT116-p53-null cells, read-out: RatioGI50
RPMI-8226 = experiment: Anticancer activity against human RPMI-8226 cells assessed as total growth inhibition incubated for 48 hrs by SRB assay; type: functional
EKVX = experiment: Anticancer activity against human EKVX cells assessed as growth inhibition incubated for 48 hrs by SRB assay; type: functional
NCI-H460 [11] = experiment: Anticancer activity against human NCI-H460 cells assessed as growth inhibition incubated for 48 hrs by SRB assay; type: functional
COLO 205 = experiment: Anticancer activity against human COLO 205 cells assessed as lethality incubated for 48 hrs by SRB assay; type: functional; conditions: read-out: LC50 (the source's name)
NCI/ADR-RES = experiment: Anticancer activity against human NCI/ADR-RES cells assessed as growth inhibition incubated for 48 hrs by SRB assay; type: functional
IGROV-1 [12] = experiment: Anticancer activity against human IGROV-1 cells assessed as growth inhibition incubated for 48 hrs by SRB assay; type: functional
UO-31 = experiment: Anticancer activity against human UO-31 cells assessed as total growth inhibition incubated for 48 hrs by SRB assay; type: functional
OVCAR-4 = experiment: Anticancer activity against human OVCAR-4 cells assessed as lethality incubated for 48 hrs by SRB assay; type: functional; conditions: read-out: LC50 (the source's name)
OVCAR-8 = experiment: Anticancer activity against human OVCAR-8 cells assessed as total growth inhibition incubated for 48 hrs by SRB assay; type: functional
SF-268 = experiment: Anticancer activity against human SF-268 cells assessed as total growth inhibition incubated for 48 hrs by SRB assay; type: functional
CAKI-1 = experiment: Anticancer activity against human CAKI-1 cells assessed as total growth inhibition incubated for 48 hrs by SRB assay; type: functional
LOX IMVI = experiment: Anticancer activity against human LOX IMVI cells assessed as inhibition of cell growth at 10 uM incubated for 48 hrs by SRB assay; values are per cent of control
MOLT-4 [13] = experiment: Anticancer activity against human MOLT-4 cells assessed as total growth inhibition incubated for 48 hrs by SRB assay; type: functional
MCF7 = experiment: Anticancer activity against human MCF7 cells assessed as total growth inhibition incubated for 48 hrs by SRB assay; type: functional
MDA-MB-468 = experiment: Anticancer activity against human MDA-MB-468 cells assessed as lethality incubated for 48 hrs by SRB assay; type: functional; conditions: read-out: LC50 (the source's name)
Jurkat = experiment: Induction of morphological changes in human Jurkat cells assessed as change in cell shape incubated for 24 hrs by Hoechst 33258 and propidium iodide staining based fluorescence microscopy; type: functional
KB 3-1 = experiment: Anticancer activity against human KB 3-1 cells assessed as cell growth inhibition incubated for 72 hrs by MTT assay; type: functional
SK-MEL-5 = experiment: Anticancer activity against human SK-MEL-5 cells assessed as growth inhibition incubated for 48 hrs by SRB assay; type: functional
[14] = Selectivity index, ratio of GI50 for human HaCaT cells to GI50 for human KB 3-1 cells; type: toxicity; conditions: HaCaT cells versus KB 3-1 cells, read-out: RatioGI50
IGROV-1 [15] = experiment: Anticancer activity against human IGROV-1 cells assessed as lethality incubated for 48 hrs by SRB assay; type: functional; conditions: read-out: LC50 (the source's name)
TK-10 = experiment: Anticancer activity against human TK-10 cells assessed as total growth inhibition incubated for 48 hrs by SRB assay; type: functional
SK-OV-3 [16] = experiment: Anticancer activity against human SK-OV-3 cells assessed as lethality incubated for 48 hrs by SRB assay; type: functional; conditions: read-out: LC50 (the source's name)
MOLT-4 [17] = experiment: Anticancer activity against human MOLT-4 cells assessed as growth inhibition incubated for 48 hrs by SRB assay; type: functional
SN12C = experiment: Anticancer activity against human SN12C cells assessed as lethality incubated for 48 hrs by SRB assay; type: functional; conditions: read-out: LC50 (the source's name)
Hs-578T [18] = experiment: Anticancer activity against human Hs-578T cells assessed as total growth inhibition incubated for 48 hrs by SRB assay; type: functional
UACC-62 = experiment: Anticancer activity against human UACC-62 cells assessed as total growth inhibition incubated for 48 hrs by SRB assay; type: functional
HCT-116 = experiment: Anticancer activity against human HCT-116 cells assessed as growth inhibition incubated for 48 hrs by SRB assay; type: functional
[19] = Selectivity index, ratio of GI50 for human HaCaT cells to GI50 for human MDA-MB-231 cells; type: toxicity; conditions: HaCaT cells versus MDA-MB-231 cells, read-out: RatioGI50
SW-620 = experiment: Anticancer activity against human SW-620 cells assessed as growth inhibition incubated for 48 hrs by SRB assay; type: functional
Malme-3M = experiment: Anticancer activity against human Malme-3M cells assessed as growth inhibition incubated for 48 hrs by SRB assay; type: functional

Work on `O=C1CC(N2C(=O)/C(=C/C(Cl)=C/c3ccc([N+](=O)[O-])cc3)SC2=S)C(=O)N1c1ccc(O)cc1` (stereo not drawn) yielded a CC50 (NCI-H522) of 9.65 µM, a GI50 at 48 h [1] of 51.2 µM and a TGI (HCC 2998) of 2.92 µM. The GI50 (Hs-578T [2]) was 2.8 µM, the TGI (IGROV-1 [3]) was 2.68 µM and the GI50 (HL-60 [4]) was 2.44 µM. The TGI (NCI-H322M) was 6.67 µM, the TGI (SNB-19) was 3.47 µM and the CC50 (HL-60 [5]) was greater than 100 µM. It also gave a CC50 (NCI-H460 [6]) of 39.5 µM, a CC50 (SF-295) of 5.54 µM and a GI50 (HCT-15) of 0.472 µM. For the same compound, the CC50 (NCI-H23) was 7.94 µM, the GI50 (SK-OV-3 [7]) was 2.99 µM and the TGI (SK-OV-3 [8]) was 9.26 µM. It also gave a GI50 (RXF 393) of 1.53 µM, a selectivity ratio [9] of 16.3 and a selectivity ratio [10] of 13. For the same compound, the TGI (RPMI-8226) was 4.36 µM, the GI50 (EKVX) was 3.25 µM and the GI50 (NCI-H460 [11]) was 2.55 µM. For the same compound, the CC50 (COLO 205) was 56 µM, the GI50 (NCI/ADR-RES) was 2.13 µM and the GI50 (IGROV-1 [12]) was 1.2 µM. The TGI (UO-31) was 2.79 µM, the CC50 (OVCAR-4) was 41.9 µM and the TGI (OVCAR-8) was 14.2 µM. It also gave a TGI (SF-268) of 6.99 µM, a TGI (CAKI-1) of 2.42 µM and a growth percent at 10 µM (LOX IMVI) of -83.7%. The TGI (MOLT-4 [13]) was 15.3 µM, the TGI (MCF7) was 10.7 µM and the CC50 (MDA-MB-468) was greater than 100 µM. The Activity (Jurkat) was “Active”, the GI50 (KB 3-1) was 8 µM and the GI50 (SK-MEL-5) was 1.92 µM. For the same compound, the selectivity ratio [14] was 9.2, the CC50 (IGROV-1 [15]) was 5.98 µM and the TGI (TK-10) was 3.79 µM. For the same compound, the CC50 (SK-OV-3 [16]) was 32 µM, the GI50 (MOLT-4 [17]) was 0.534 µM and the CC50 (SN12C) was 24.6 µM. It also gave a TGI (Hs-578T [18]) of 12.6 µM, a TGI (UACC-62) of 3.38 µM and a GI50 (HCT-116) of 0.751 µM. For the same compound, the selectivity ratio [19] was 11.9, the GI50 (SW-620) was 0.684 µM and the GI50 (Malme-3M) was 2.31 µM.
